{"source": "paper PMC9683047", "about": "“Design, synthesis and biological evaluation of 4-aminoquinoline derivatives as receptor-interacting protein kinase 2 (RIPK2) inhibitors” (Journal of Enzyme Inhibition and Medicinal Chemistry, 2022)", "type_in_all_cases": "biochemical", "key": {"[1]": {"target": "T1, MST1(h) (Homo sapiens, UniProt Q13043)", "T1 construct": "purchased Eurofins (Millipore) KinaseProfiler Diversity Panel", "test": "Kinase selectivity panel: MST1", "procedure": "(§1) To confirm the anti-inflammatory effect was caused by RIPK2 inhibition, compound 14 was subjected to kinase selectivity evaluation (Figure 4). Kinase selectivity profile of compound 14 as shown by the diversity kinase Panel screen against 70 kinases assayed at 1 µM. Among all tested 70 kinases, only five were inhibited over 90% at 1 µM including Fyn, Lyn, BTK, Abl and RIPK2. Three kinases including KDR, CDK9 and LOK were inhibited 50–90% at 1 µM."}, "[2]": {"target": "T2, CK1γ1(h) (Homo sapiens, UniProt Q9HCP0)", "T2 construct": "purchased Eurofins (Millipore) KinaseProfiler Diversity Panel", "test": "Kinase selectivity panel: CK1γ1", "conditions": "1 µM", "procedure": "as §1"}, "[3]": {"target": "T3, NEK2(h) (Homo sapiens, UniProt P51955)", "T3 construct": "purchased Eurofins (Millipore) KinaseProfiler Diversity Panel", "test": "Kinase selectivity panel: NEK2", "conditions": "1 µM", "procedure": "as §1"}, "[4]": {"target": "T4, PAK2(h) (Homo sapiens, UniProt Q13177)", "T4 construct": "purchased Eurofins (Millipore) KinaseProfiler Diversity Panel", "test": "Kinase selectivity panel: PAK2", "conditions": "1 µM", "procedure": "as §1"}, "[5]": {"target": "T5, JAK3(h) (Homo sapiens, UniProt P52333)", "T5 construct": "purchased Eurofins (Millipore) KinaseProfiler Diversity Panel", "test": "Kinase selectivity panel: JAK3", "conditions": "1 µM", "procedure": "as §1"}, "[6]": {"target": "T6, CDK7/cyclinH/MAT1(h) (Homo sapiens, UniProt P50613)", "T6 construct": "purchased Eurofins (Millipore) KinaseProfiler Diversity Panel", "test": "Kinase selectivity panel: CDK7/cyclinH/MAT1", "procedure": "as §1"}, "[7]": {"target": "T7, p70S6K(h) (Homo sapiens, UniProt P23443)", "T7 construct": "purchased Eurofins (Millipore) KinaseProfiler Diversity Panel", "test": "Kinase selectivity panel: p70S6K", "procedure": "as §1"}, "[8]": {"target": "T8, Rsk1(h) (Homo sapiens, UniProt Q15418)", "T8 construct": "purchased Eurofins (Millipore) KinaseProfiler Diversity Panel", "test": "Kinase selectivity panel: Rsk1", "conditions": "1 µM", "procedure": "as §1"}, "[9]": {"target": "T9, ASK1(h) (Homo sapiens, UniProt Q99683)", "T9 construct": "purchased Eurofins (Millipore) KinaseProfiler Diversity Panel", "test": "Kinase selectivity panel: ASK1", "procedure": "as §1"}, "[10]": {"target": "T10, Aurora-A(h) (Homo sapiens, UniProt O14965)", "T10 construct": "purchased Eurofins (Millipore) KinaseProfiler Diversity Panel", "test": "Kinase selectivity panel: Aurora-A", "conditions": "1 µM", "procedure": "as §1"}, "[11]": {"target": "T11, EphA5(h) (Homo sapiens, UniProt P54756)", "T11 construct": "purchased Eurofins (Millipore) KinaseProfiler Diversity Panel", "test": "Kinase selectivity panel: EphA5", "conditions": "1 µM", "procedure": "as §1"}, "[12]": {"target": "T12, TAK1(h) (Homo sapiens, UniProt O43318)", "T12 construct": "purchased Eurofins (Millipore) KinaseProfiler Diversity Panel", "test": "Kinase selectivity panel: TAK1", "conditions": "1 µM", "procedure": "as §1"}, "[13]": {"target": "T13, BTK(R28H)(h) (Homo sapiens, UniProt Q06187, R28H)", "T13 construct": "purchased Eurofins (Millipore) KinaseProfiler Diversity Panel", "T13 sequence (Q06187 whole entry R28H)": "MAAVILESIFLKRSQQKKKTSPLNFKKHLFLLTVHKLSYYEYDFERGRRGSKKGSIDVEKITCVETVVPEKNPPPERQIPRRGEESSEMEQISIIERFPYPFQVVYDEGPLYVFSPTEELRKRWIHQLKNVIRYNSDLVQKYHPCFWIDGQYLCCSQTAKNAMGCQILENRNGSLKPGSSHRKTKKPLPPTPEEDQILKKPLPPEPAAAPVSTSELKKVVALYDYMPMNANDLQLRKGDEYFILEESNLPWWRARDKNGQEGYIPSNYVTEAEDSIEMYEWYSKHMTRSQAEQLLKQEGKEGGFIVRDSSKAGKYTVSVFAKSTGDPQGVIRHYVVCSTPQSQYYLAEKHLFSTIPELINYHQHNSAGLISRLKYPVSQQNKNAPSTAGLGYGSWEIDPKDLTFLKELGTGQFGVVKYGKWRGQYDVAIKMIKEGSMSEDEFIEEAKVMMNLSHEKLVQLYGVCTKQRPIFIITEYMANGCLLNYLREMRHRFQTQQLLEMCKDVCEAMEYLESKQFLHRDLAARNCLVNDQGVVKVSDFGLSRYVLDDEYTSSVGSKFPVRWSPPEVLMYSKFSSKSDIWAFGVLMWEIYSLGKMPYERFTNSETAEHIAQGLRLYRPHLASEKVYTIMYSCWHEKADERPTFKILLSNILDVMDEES", "test": "Kinase selectivity panel: BTK(R28H)", "conditions": "1 µM", "procedure": "as §1"}, "[14]": {"target": "T14, PI3 Kinase (p110b/p85a)(h) (Homo sapiens, UniProt P42338)", "T14 construct": "purchased Eurofins (Millipore) KinaseProfiler Diversity Panel", "test": "Kinase selectivity panel: PI3 Kinase (p110b/p85a)", "procedure": "as §1"}, "[15]": {"target": "T15, Lyn(h) (Homo sapiens, UniProt P07948)", "T15 construct": "purchased Eurofins (Millipore) KinaseProfiler Diversity Panel", "T15 sequence (P07948 whole entry)": "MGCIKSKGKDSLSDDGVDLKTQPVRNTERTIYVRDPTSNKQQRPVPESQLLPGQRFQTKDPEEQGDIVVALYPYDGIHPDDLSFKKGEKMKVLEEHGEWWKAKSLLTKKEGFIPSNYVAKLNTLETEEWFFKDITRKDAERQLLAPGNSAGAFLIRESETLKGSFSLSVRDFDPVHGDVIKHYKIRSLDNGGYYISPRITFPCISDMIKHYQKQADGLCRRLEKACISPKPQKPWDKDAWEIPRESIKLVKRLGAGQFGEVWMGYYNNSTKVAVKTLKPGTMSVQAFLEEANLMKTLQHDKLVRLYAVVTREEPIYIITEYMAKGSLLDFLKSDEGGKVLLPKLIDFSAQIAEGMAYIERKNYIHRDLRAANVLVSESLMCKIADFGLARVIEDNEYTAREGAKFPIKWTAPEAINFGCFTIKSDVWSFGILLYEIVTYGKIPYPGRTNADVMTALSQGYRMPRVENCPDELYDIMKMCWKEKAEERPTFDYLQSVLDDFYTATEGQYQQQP", "test": "Kinase selectivity panel: Lyn", "procedure": "as §1"}, "[16]": {"target": "T16, SRPK1(h) (Homo sapiens, UniProt Q96SB4)", "T16 construct": "purchased Eurofins (Millipore) KinaseProfiler Diversity Panel", "test": "Kinase selectivity panel: SRPK1", "set-up": "unit not given here", "procedure": "as §1"}, "[17]": {"target": "T17, Plk3(h) (Homo sapiens, UniProt Q9H4B4)", "T17 construct": "purchased Eurofins (Millipore) KinaseProfiler Diversity Panel", "T17 sequence (Q9H4B4 whole entry)": "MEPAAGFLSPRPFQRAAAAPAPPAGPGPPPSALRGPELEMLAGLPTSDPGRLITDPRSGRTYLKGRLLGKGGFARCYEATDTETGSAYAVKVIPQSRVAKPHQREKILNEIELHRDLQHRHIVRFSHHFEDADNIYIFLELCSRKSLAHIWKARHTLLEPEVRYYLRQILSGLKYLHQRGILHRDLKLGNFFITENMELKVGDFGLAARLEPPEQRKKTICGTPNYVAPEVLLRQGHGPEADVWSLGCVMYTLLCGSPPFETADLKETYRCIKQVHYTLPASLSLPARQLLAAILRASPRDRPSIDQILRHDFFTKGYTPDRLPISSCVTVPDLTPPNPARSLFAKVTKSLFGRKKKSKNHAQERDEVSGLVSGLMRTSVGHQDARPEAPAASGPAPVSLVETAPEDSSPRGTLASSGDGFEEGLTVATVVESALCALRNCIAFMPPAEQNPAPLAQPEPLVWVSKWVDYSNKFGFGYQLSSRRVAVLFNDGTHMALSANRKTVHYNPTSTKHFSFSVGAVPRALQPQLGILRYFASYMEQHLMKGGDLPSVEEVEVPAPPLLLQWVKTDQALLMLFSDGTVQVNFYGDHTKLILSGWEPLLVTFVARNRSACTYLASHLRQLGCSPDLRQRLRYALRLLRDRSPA", "test": "Kinase selectivity panel: Plk3", "conditions": "1 µM", "procedure": "as §1"}, "[18]": {"target": "T18, c-RAF(h) (Homo sapiens, UniProt P04049)", "T18 construct": "purchased Eurofins (Millipore) KinaseProfiler Diversity Panel", "test": "Kinase selectivity panel: c-RAF", "procedure": "as §1"}, "[19]": {"target": "T19, PKCα(h) (Homo sapiens, UniProt P17252)", "T19 construct": "purchased Eurofins (Millipore) KinaseProfiler Diversity Panel", "test": "Kinase selectivity panel: PKCα", "conditions": "1 µM", "procedure": "as §1"}, "[20]": {"target": "T20, ALK(h) (Homo sapiens, UniProt Q9UM73)", "T20 construct": "purchased Eurofins (Millipore) KinaseProfiler Diversity Panel", "T20 sequence (Q9UM73 19-1620)": "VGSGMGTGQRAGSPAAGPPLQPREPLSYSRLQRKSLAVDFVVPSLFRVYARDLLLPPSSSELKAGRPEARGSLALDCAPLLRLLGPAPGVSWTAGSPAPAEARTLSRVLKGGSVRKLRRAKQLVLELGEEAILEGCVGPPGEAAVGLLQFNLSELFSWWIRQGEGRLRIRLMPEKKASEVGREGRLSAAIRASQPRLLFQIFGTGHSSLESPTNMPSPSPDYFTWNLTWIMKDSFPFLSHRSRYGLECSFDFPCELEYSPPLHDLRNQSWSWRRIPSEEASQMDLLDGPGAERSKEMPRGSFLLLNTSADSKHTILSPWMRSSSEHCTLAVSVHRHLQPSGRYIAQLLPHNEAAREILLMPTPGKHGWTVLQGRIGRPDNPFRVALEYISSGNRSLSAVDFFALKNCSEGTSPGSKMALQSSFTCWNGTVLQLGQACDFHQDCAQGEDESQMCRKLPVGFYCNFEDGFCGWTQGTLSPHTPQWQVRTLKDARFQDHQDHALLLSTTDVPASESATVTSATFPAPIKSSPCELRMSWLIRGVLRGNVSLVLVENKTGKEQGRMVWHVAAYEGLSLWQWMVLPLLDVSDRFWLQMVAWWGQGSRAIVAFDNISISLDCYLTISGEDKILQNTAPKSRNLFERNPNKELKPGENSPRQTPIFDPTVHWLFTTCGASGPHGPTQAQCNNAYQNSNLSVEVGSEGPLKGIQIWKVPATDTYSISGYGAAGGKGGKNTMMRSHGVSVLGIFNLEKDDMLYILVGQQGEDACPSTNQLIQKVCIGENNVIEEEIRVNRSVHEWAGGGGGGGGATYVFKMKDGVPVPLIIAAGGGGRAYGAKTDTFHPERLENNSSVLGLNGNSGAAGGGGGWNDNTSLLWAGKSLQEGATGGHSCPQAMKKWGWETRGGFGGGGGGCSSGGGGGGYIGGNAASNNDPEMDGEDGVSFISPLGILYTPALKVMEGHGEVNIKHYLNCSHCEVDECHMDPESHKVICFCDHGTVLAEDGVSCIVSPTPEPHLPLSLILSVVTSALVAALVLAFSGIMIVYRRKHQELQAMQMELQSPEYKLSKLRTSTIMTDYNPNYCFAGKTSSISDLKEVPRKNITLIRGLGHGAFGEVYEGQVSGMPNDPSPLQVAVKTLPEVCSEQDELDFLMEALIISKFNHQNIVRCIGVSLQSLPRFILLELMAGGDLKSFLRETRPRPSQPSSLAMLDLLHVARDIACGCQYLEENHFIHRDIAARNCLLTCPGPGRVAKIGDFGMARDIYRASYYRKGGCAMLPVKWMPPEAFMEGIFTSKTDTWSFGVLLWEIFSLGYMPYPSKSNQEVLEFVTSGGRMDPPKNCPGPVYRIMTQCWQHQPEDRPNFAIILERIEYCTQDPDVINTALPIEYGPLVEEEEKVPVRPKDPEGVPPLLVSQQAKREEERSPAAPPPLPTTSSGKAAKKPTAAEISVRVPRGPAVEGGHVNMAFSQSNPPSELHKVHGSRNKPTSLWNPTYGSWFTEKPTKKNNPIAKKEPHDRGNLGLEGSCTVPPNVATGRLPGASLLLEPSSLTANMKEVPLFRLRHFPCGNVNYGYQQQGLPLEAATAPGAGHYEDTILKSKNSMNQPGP", "test": "Kinase selectivity panel: ALK", "conditions": "1 µM", "procedure": "as §1"}, "[21]": {"target": "T21, IKKε(h) (Homo sapiens, UniProt Q14164)", "T21 construct": "purchased Eurofins (Millipore) KinaseProfiler Diversity Panel", "test": "Kinase selectivity panel: IKKε", "procedure": "as §1"}, "[22]": {"target": "T22, ROCK-I(h) (Homo sapiens, UniProt Q13464)", "T22 construct": "purchased Eurofins (Millipore) KinaseProfiler Diversity Panel", "test": "Kinase selectivity panel: ROCK-I", "conditions": "1 µM", "procedure": "as §1"}, "[23]": {"target": "T23, BTK(h) (Homo sapiens, UniProt Q06187)", "T23 construct": "purchased Eurofins (Millipore) KinaseProfiler Diversity Panel", "T23 sequence (Q06187 whole entry)": "as the sequence (Q06187 whole entry R28H) above, with H28R counted along it", "test": "Kinase selectivity panel: BTK", "procedure": "as §1"}, "[24]": {"target": "T24, PKA(h) (Homo sapiens, UniProt P17612)", "T24 construct": "purchased Eurofins (Millipore) KinaseProfiler Diversity Panel", "test": "Kinase selectivity panel: PKA", "conditions": "1 µM", "procedure": "as §1"}, "[25]": {"target": "T25, Rse(h) (Homo sapiens, UniProt Q06418)", "T25 construct": "purchased Eurofins (Millipore) KinaseProfiler Diversity Panel", "test": "Kinase selectivity panel: Rse", "conditions": "1 µM", "procedure": "as §1"}, "[26]": {"target": "T26, SAPK2a(h) (Homo sapiens, UniProt Q16539)", "T26 construct": "purchased Eurofins (Millipore) KinaseProfiler Diversity Panel", "test": "Kinase selectivity panel: SAPK2a", "procedure": "as §1"}, "[27]": {"target": "T27, Mnk2(h) (Homo sapiens, UniProt Q9HBH9)", "T27 construct": "purchased Eurofins (Millipore) KinaseProfiler Diversity Panel", "T27 sequence (Q9HBH9 whole entry)": "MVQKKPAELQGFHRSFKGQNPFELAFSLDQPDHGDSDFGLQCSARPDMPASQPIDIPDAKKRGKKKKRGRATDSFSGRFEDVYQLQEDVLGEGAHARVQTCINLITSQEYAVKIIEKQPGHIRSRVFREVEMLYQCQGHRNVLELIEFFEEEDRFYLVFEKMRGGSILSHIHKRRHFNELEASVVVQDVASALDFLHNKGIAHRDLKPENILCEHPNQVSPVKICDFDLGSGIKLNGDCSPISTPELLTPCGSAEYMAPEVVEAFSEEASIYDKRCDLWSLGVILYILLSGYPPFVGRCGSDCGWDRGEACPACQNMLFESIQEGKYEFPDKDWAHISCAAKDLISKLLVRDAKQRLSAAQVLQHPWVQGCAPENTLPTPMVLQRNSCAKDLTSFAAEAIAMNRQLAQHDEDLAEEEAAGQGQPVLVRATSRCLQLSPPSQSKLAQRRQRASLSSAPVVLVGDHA", "test": "Kinase selectivity panel: Mnk2", "procedure": "as §1"}, "[28]": {"target": "T28, MLK1(h) (Homo sapiens, UniProt P80192)", "T28 construct": "purchased Eurofins (Millipore) KinaseProfiler Diversity Panel", "T28 sequence (P80192 whole entry)": "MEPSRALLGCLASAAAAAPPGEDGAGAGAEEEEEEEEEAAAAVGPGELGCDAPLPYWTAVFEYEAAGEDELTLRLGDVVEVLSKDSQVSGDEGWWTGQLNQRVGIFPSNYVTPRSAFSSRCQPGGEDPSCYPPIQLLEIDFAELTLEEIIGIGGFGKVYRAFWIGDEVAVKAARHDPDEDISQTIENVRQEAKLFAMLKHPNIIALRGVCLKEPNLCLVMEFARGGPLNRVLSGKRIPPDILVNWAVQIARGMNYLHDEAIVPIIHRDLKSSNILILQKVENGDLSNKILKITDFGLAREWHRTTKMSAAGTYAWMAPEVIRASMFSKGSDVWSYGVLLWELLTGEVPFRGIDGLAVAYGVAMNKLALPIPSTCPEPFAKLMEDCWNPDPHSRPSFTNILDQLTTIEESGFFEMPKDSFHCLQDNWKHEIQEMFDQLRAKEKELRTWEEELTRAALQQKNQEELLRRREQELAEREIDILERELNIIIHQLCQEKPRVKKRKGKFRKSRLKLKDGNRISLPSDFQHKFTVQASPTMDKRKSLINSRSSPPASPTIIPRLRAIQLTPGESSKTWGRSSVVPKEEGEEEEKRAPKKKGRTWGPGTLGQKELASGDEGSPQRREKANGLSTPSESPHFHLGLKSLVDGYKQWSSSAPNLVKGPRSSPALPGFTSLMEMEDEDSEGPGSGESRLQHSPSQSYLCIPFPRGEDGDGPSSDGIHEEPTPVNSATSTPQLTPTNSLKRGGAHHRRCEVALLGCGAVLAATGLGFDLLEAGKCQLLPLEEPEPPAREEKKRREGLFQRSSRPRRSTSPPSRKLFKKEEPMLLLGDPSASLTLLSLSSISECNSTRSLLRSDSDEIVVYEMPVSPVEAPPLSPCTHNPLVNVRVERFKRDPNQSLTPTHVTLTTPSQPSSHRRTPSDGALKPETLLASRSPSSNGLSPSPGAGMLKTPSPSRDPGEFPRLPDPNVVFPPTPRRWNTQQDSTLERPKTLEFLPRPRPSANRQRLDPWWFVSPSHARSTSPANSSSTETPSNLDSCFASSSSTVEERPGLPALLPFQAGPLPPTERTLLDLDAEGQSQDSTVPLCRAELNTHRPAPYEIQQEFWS", "test": "Kinase selectivity panel: MLK1", "procedure": "as §1"}, "[29]": {"target": "T29, PRAK(h) (Homo sapiens, UniProt Q8IW41)", "T29 construct": "purchased Eurofins (Millipore) KinaseProfiler Diversity Panel", "test": "Kinase selectivity panel: PRAK", "conditions": "1 µM", "procedure": "as §1"}, "[30]": {"target": "T30, Itk(h) (Homo sapiens, UniProt Q08881)", "T30 construct": "purchased Eurofins (Millipore) KinaseProfiler Diversity Panel", "test": "Kinase selectivity panel: Itk", "procedure": "as §1"}, "[31]": {"target": "T31, PI3 Kinase (p120g)(h) (Homo sapiens, UniProt P48736)", "T31 construct": "purchased Eurofins (Millipore) KinaseProfiler Diversity Panel", "test": "Kinase selectivity panel: PI3 Kinase (p120g)", "conditions": "1 µM", "procedure": "as §1"}}, "data": [{"smiles": "c1cc(-c2ccc3nccc(Nc4ccc5scnc5c4)c3c2)ccn1", "note": "[Compound 14, N-(6-(pyridin-4-yl)quinolin-4-yl)benzo[d]thiazol-5-amine]", "values": [{"measurement": "MST1 kinase activity remaining with compound 14 at 1 µM (% of control)", "setting": "[1]", "value": 105}, {"measurement": "Remaining kinase activity (% of control)", "setting": "[2]", "value": 93}, {"measurement": "percent remaining NEK2 kinase activity with compound 14", "setting": "[3]", "value": 88}, {"measurement": "percent remaining kinase activity", "setting": "[4]", "value": 100}, {"measurement": "Remaining kinase activity (% of control)", "setting": "[5]", "value": 100}, {"measurement": "CDK7/cyclinH/MAT1(h), 14 @ 1 µM", "setting": "[6]", "value": 83}, {"measurement": "Remaining kinase activity (% of control) at 1 µM compound 14", "setting": "[7]", "value": 95}, {"measurement": "Rsk1 kinase activity remaining (% of control)", "setting": "[8]", "value": 98}, {"measurement": "ASK1 remaining activity (% of control) with compound 14 at 1 µM", "setting": "[9]", "value": 87}, {"measurement": "Remaining kinase activity (% of control)", "setting": "[10]", "value": 95}, {"measurement": "Remaining kinase activity (% of control)", "setting": "[11]", "value": 96}, {"measurement": "Remaining kinase activity (% of control)", "setting": "[12]", "value": 90}, {"measurement": "percent remaining kinase activity", "setting": "[13]", "value": 63}, {"measurement": "remaining kinase activity (% of control) with compound 14 at 1 µM", "setting": "[14]", "value": 88}, {"measurement": "Remaining Lyn kinase activity (% of control)", "setting": "[15]; 1 µM", "value": 3}, {"measurement": "inhibition at 1 µM", "setting": "[15]; at 1 µM", "value": "> 90", "unit": "%"}, {"measurement": "SRPK1(h), 14 @ 1 µM", "setting": "[16]", "value": 111}, {"measurement": "remaining Plk3 kinase activity (% of control)", "setting": "[17]", "value": 86}, {"measurement": "c-RAF remaining activity (% of control) with compound 14 at 1 µM", "setting": "[18]", "value": 65}, {"measurement": "% remaining kinase activity", "setting": "[19]", "value": 94}, {"measurement": "ALK remaining activity (% of control)", "setting": "[20]", "value": 77}, {"measurement": "Remaining IKKε activity at 1 µM (% of control)", "setting": "[21]", "value": 106}, {"measurement": "Remaining kinase activity (% of control)", "setting": "[22]", "value": 70}, {"measurement": "remaining BTK activity (% of control)", "setting": "[23]; 1 µM", "value": 4}, {"measurement": "inhibition at 1 µM", "setting": "[23]; at 1 µM", "value": "> 90", "unit": "%"}, {"measurement": "Remaining kinase activity (% of control)", "setting": "[24]", "value": 117}, {"measurement": "Remaining kinase activity (% of control)", "setting": "[25]", "value": 121}, {"measurement": "% remaining SAPK2a activity with compound 14 at 1 µM", "setting": "[26]", "value": 54}, {"measurement": "Mnk2 remaining activity (% of control) with compound 14 at 1 µM", "setting": "[27]", "value": 68}, {"measurement": "Remaining MLK1 activity (%) with compound 14 at 1 µM", "setting": "[28]", "value": 89}, {"measurement": "remaining kinase activity (%)", "setting": "[29]", "value": 123}, {"measurement": "Remaining Itk kinase activity (%) with compound 14 at 1 µM", "setting": "[30]", "value": 78}, {"measurement": "Remaining kinase activity (% of control)", "setting": "[31]", "value": 79}]}]}
